# In patent US9549746B2, “Delivery device and method” (THE QUEEN'S UNIVERSITY OF BELFAST, priority 2007, dated 2017):
# Assay: Delivery across full thickness murine skin in a Franz diffusion cell from drug reservoir with integrated PMVMA microneedle array
# Conditions: reservoir 19.0 mg TMP cm^-2 attached to PMVMA microneedle array; receiver compartment followed over 25 hours; FIG. 11
# Method: In this study, a matrix-type drug reservoir containing 19.0 mg TMP cm^−2 was prepared and attached to a poly(methylvinylether/maleic acid-co-glyceride) (PMVMA) microneedle array. This system was pressed into full thickness murine skin, mounted as the barrier membrane in a Franz diffusion cell, with the aid of gentle pressure. TMP appearing in the receiver compartment was determined by fluorescence spectroscopy over a period of 25 hours.
# An identical experiment to that described in Example 3 was performed again. The only difference was that the small very water soluble photosensitiser precursor 5-aminolevulinc acid (ALA, MW 167 Da) was used instead of TMP.
compound,measurement,value
"C[n+]1ccc(-c2c3nc(c(-c4cc[n+](C)cc4)c4ccc([nH]4)c(-c4cc[n+](C)cc4)c4nc(c(-c5cc[n+](C)cc5)c5ccc2[nH]5)C=C4)C=C3)cc1.Cc1ccc(S(=O)(=O)[O-])cc1.Cc1ccc(S(=O)(=O)[O-])cc1.Cc1ccc(S(=O)(=O)[O-])cc1.Cc1ccc(S(=O)(=O)[O-])cc1 [TMP, meso-Tetra (N-methyl-4-pyridyl) porphine tetra tosylate]",delivery of TMP across full thickness skin,sustained delivery of TMP across full thickness skin is possible
